Patent publication US20190150437A1, “USE OF SESQUITERPENES AND THEIR ANALOGS AS GREEN INSECTICIDES FOR CONTROLLING DISEASE VECTORS AND PLANT PESTS” (Ohio State Innovation Foundation, priority 2016, published 2019)
Entries after “also recorded” stand apart in the source; their conditions may differ. Marks after values point to notes of the source that are not given here.

Legend:
[1] = tested on: Alpha-glucosidase (EC 3.2.1.20); assay: Alpha-Glucosidase Inhibition Assay; format: biochemical; conditions: for Alpha-glucosidase inhibitory activity, in words / alpha-Glucosidase inhibition (%): 0.1 mg/mL final concentration
Method: Alpha-Glucosidase Inhibition Assay.
The assay was performed according to the 126 Journal of Natural Products, 2008. Vol. 71. No. 1 Notes
method described by Oki and co-workers, with slight modifications.^13 alpha-Glucosidase was purchased from Toyobo Co., Ltd. (Osaka. Japan). The enzyme solution was prepared by dissolving 0.6 U/mL of Alpha-glucosidase in 100 mM phosphate buffer (pH 7) containing 2 g/L bovine serum albumin and 0.2 g/L NaN3. p-Nitrophenyl-R-D-glucopyranoside (5 mM) in the same buffer solution (pH 7) was used as a substrate solution. The enzyme solution (50 μL) and the test compounds (10 μL), dissolved in DMSO to a final concentration of 0.1 mg/mL, were mixed in each well of the microliter 96-well culture plates and measured spectrophotometrically (absorbance 405 nm) at zero time, using a microplate reader (Bio-Rad model 550 microplate reader). The mixture was preincubated for 5 min at room temperature before the addition of substrate solution ([…]) and followed by a 5 min incubation at room temperature. The increase in absorbance from zero time was measured. The inhibitory activity was expressed as […] minus the relative absorbance difference (%) of test compounds to absorbance change of the control where the test solution was replaced by DMSO. 1-Deoxynojirimycin (Wako Pure Chemical Industries, Ltd.) 0.3 mM in DMSO was used as a positive control.

A. aegypti adult females = assay: Adult female mosquito toxicity, applied to thoracic cuticle, 24 h; format: in vivo, Aedes aegypti; conditions: for Adult female mosquitoes ED50 in μg/mg mosquito (95% CI), A. aegypti: adult females, 24 h after applying to thoracic cuticle, in acetone
Method: (§1) A,C) Concentration-toxicity relationships in 1st instar larvae 24 h after adding CINEX or indicated compound to the rearing water. B,D) Dose-toxicity relationships in adult females 24 h after applying CINEX or indicated compound to the thoracic cuticle. CDIAL=OSU-1.
(§2) Each compound of cinnamodial (CDIAL), cinnafragrin A (CM18) and cinnamosmolide (CMOS) were isolated form the barks of the Madagascan plants Cinnamosma fragrans, Cinnamosma macrocarpa and Cinnamosma madagascariensis. Each was dissolved in 100% acetone and applied directly to the cuticle of adult female mosquitoes (Aedes aegypti, Anopheles gambiae, and Culex pipiens) or 3rd instar nymph soybean aphids (Aphis glycines). The bark extract and the isolated compounds was toxic to larval and adult female mosquitoes within 24 hr in a concentration/dose dependent manner (FIGS. 4 and 5). Among the isolated compounds.

[2] = tested on: soybean aphid Aphis glycines; assay: Soybean aphid toxicity, applied to cuticle of 3rd instar nymphs, 24 h; format: in vivo; conditions: for ED50 in aphids: 3rd instar nymphs, 24 h after application to cuticle
Method: Dose-toxicity relationships in 3rd instar nymphs 24 h after adding CINEX or indicated compound to the thoracic cuticle. CDIAL=OSU-1.
as §2

[3] = tested on: A. aegypti 1st instar larvae; assay: Larval mosquito toxicity, compound added to rearing water, 24 h; format: in vivo, Aedes aegypti; conditions: for Larval mosquitoes EC50 in ppm (95% CI), A. aegypti: larvae, 24 h after adding to rearing water
Method: as §1, §2

[4] = tested on: Alpha-glucosidase (EC 3.2.1.20); conditions: reported in references 2 and 3; cited from earlier work
[5] = tested on: adult female Aedes aegpti; assay: Blood-feeding bioassay (mosquito repellency, membrane feeder); format: in vivo, Aedes aegypti; conditions: 20.8 μg/cm^2 on nylon fabric covering the blood source, 1 h
Text: FIG. 8 is a graph showing repellent efficacy of CINEX and CDIAL (OSU-1) compared to DEET, an industry standard. Values are means±SEM; N=31, 9, 5, and 15 respectively for Control, DEET, CINEX, and CDIAL. Lower-case letters indicate statistical categorization of the means as determined by a one-way ANOVA with a Newman-Keuls posttest (P<0.05).
We used a blood-feeding bioassay to test the efficacy of OSU-1 (CDIAL) and the C. fragrans bark extract (CINEX) to repel mosquitoes from feeding on a blood source. In brief, cages of 20 mosquitoes (adult female Aedes aegpti) were starved for 24 h before being allowed to feed on a membrane feeder (Hemotek) containing defibrinated rabbit blood. After 1 h, the mosquitoes were immobilized on ice and the number of individuals with blood in their abdomen was counted. The membrane feeder maintains the blood at a constant temperature of 37° C. (human body temperature) and is covered with a collagen membrane that mimics human skin. Mosquitoes pierce through the collagen membrane with their proboscis to obtain the blood. […] Lower-case letters indicate statistical categorization of the means as determined by a one-way ANOVA with a Newman-Keuls posttest (P<0.05).

A. gambiae adult females = assay: Adult female mosquito toxicity, applied to thoracic cuticle, 24 h; format: in vivo, Anopheles gambiae; conditions: 24 h after applying to thoracic cuticle, in acetone
Method: (§3) The concentration/dose-toxicity relationships for Ae. aegypti from FIG. 4 are superimposed to facilitate comparisons.
as §2

C. pipiens larvae = assay: Larval mosquito toxicity, compound added to rearing water, 24 h; format: in vivo, Culex pipiens; conditions: 24 h after adding to rearing water
Method: as §3, §2

C. pipiens adult females = assay: Adult female mosquito toxicity, applied to thoracic cuticle, 24 h; format: in vivo, Culex pipiens; conditions: 24 h after applying to thoracic cuticle, in acetone
Method: as §3, §2

A. gambiae larvae = assay: Larval mosquito toxicity, compound added to rearing water, 24 h; format: in vivo, Anopheles gambiae; conditions: 24 h after adding to rearing water
Method: as §3, §2

| alpha-Glucosidase inhibition (%) [1] | Compound | Alpha-glucosidase inhibitory activity, in words [1] | Adult female mosquitoes ED50 in μg/mg mosquito (95% CI), A. aegypti (A. aegypti adult females) | ED50 in aphids [2] [μg/aphid] | Larval mosquitoes EC50 in ppm (95% CI), A. aegypti [3] | also measured |
| --- | --- | --- | --- | --- | --- | --- |
| 2.1% | CC1(C)CCC[C@]2(C)[C@@H](C=O)C(C=O)=CC[C@@H]12 [Compound 5, polygodial] | only slight activity; also recorded: did not show any activity | – | – | – | – |
| 46.2% | CC(=O)O[C@@H]1[C@@H](O)C2=C(C(=O)OC2)[C@@]2(C)CCCC(C)(C)[C@H]12 [Compound 4, ugandensolide] | moderate effects; also recorded: moderate activity | – | – | – | – |
| not active | COC1OC(OC)C2(O)C1=CC(OC(C)=O)C1C(C)(C)CCCC12C (stereo not shown) [Compound 2, cinnamodial 11R,12-dimethyl acetal] | – | – | – | – | – |

The remaining lines, values behind:

| Compound | alpha-Glucosidase inhibition (%) [1] | Alpha-glucosidase inhibitory activity, in words [1] | Adult female mosquitoes ED50 in μg/mg mosquito (95% CI), A. aegypti (A. aegypti adult females) | ED50 in aphids [2] [μg/aphid] | Larval mosquitoes EC50 in ppm (95% CI), A. aegypti [3] | also measured |
| --- | --- | --- | --- | --- | --- | --- |
| cinnamadin [Compound 1] | 14.9% | moderate effects | – | – | – | – |
| CC(=O)O[C@@H]1C=C2C(=O)OCC2(O)[C@@]2(C)CCCC(C)(C)C12 (stereo partly shown) [CMOS, cinnamosmolide] | 20.0% | – | 3.94* μg/mg mosquito | 2.5 | 134.4* ppm | – |
| CC1(C)CCC[C@]2(C)[C@H](C=O)C(C=O)=CC[C@@H]12 [isopolygodial, reference compound] | – | – | – | – | – | Alpha-glucosidase inhibition, in words, from earlier papers [4]: did not show any activity |
| CC(=O)O[C@@H]1C=C(C2OC3OC(O)C4=C[C@@H](OC(C)=O)C5C(C)(C)CCC[C@]5(C)[C@]43O2)[C@@](O)(C=O)[C@@]2(C)CCCC(C)(C)C12 (stereo partly shown) [CM18, cinnafragrin A] | – | – | 2.03* μg/mg mosquito | 1.7 | 22.6 ppm | – |
| CC1(C)CCC[C@@]2(C)[C@H]1[C@H](O)C=C1C(=O)OC[C@]12O [Compound 3, pereniporin B] | 7.2% | – | – | – | – | – |
| OC[C@H]1NC[C@H](O)[C@@H](O)[C@@H]1O [1-deoxynojirimycin, reference compound] | – | – | – | – | – | alpha-Glucosidase inhibition (%), positive control ([1]; 0.3 mM in DMSO, positive control): 100% |
| CC(=O)O[C@@H]1C=C(C=O)[C@@](O)(C=O)[C@@]2(C)CCCC(C)(C)C12 (stereo partly shown) [CDIAL, cinnamodial] | 83.7% | most potent activity | 0.09 μg/mg mosquito | 0.38 | 21.6 ppm | Percentage of mosquitoes feeding on a blood source, in words [5]: significantly reduced; Adult female mosquitoes ED50 in μg/mg mosquito (95% CI), A. gambiae (A. gambiae adult females): 0.05† μg/mg mosquito; Larval mosquitoes EC50 in ppm (95% CI), C. pipiens (C. pipiens larvae): 13.3† ppm; Adult female mosquitoes ED50 in μg/mg mosquito (95% CI), C. pipiens (C. pipiens adult females): 0.17† μg/mg mosquito; Toxicity to adult female mosquitoes, in words (A. aegypti adult females; within 24 hr, dose dependent): most potent and efficacious; Toxicity to aphids, in words ([2]; within 24 h of application): most potent; Larval mosquitoes EC50 in ppm (95% CI), A. gambiae (A. gambiae larvae): 29.8 ppm; Toxicity to larval mosquitoes, in words ([3]; within 24 hr, concentration dependent): most potent and efficacious; Alpha-glucosidase inhibition, in words, from earlier papers [4]: strong inhibition |
